Key:
Format in all cases: cell-based
PfCRT^Ecu1110 [1] = molecular target: T1, PfCRT^Ecu1110 (Plasmodium falciparum, UniProt Q9N623, A220S/I356L/K76T/N326D); assay: [3H]CQ uptake into Xenopus oocytes, cis-inhibition by unlabelled solute; conditions: for PfCRT-mediated [3H]CQ transport, cis-inhibition (% PfCRTEcu1110 control): PfCRTEcu1110 oocytes, background [3H]CQ accumulation subtracted, normalised to oocyte type control; for [3H]CQ transport (% PfCRTEcu1110 control), cis-inhibition, PfCRTEcu1110: PfCRT-mediated component (background subtracted), sheet title says normalised to PfCRTDd2 control, mean ± SEM, SEM
How it was run: (§1)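 Each treatment used ten oocytes, repeated in at least four experiments on different days with oocytes from different frogs. Conditions: ND96 pH 5.5, 27.5 °C, 1.5 h; read-out by scintillation counting.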

PfCRT^Dd2 [2] = molecular target: T2, PfCRT^Dd2 (Plasmodium falciparum, UniProt Q9N623, A220S/I356T/K76T/M74I/N326S/N75E/Q271E/R371I); assay: as above; conditions: PfCRTDd2 oocytes, background [3H]CQ accumulation subtracted, normalised to oocyte type control
How it was run: as §1

PfCRT^3D7 = PfCRT^3D7 (Plasmodium falciparum, UniProt Q8IBZ9); assay: cell-based; conditions: PfCRT3D7 oocytes, normalised to oocyte type control
How it was run: (§2)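 Oocytes (ten per treatment, ≥4 independent frogs/days) were preloaded by injecting VF-6 in 25 nL ND96 at pH 5.0, 5.5, 6.0 or 7.0, or Na^+-free choline buffer, then uptake run 1.5 h, 27.5 °C, ND96 pH 5.5 by default. Internal concentrations assumed ~400 nL oocyte volume.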

PfCRT^Ecu1110 [3] = molecular target: T1, PfCRT^Ecu1110; assay: cell-based; conditions: for PfCRT-mediated [3H]CQ transport, trans-stimulation (% PfCRTEcu1110 control): PfCRTEcu1110 oocytes, normalised to oocyte type control; for [3H]CQ transport (% PfCRTDd2 control), trans-stimulation, PfCRTEcu1110: PfCRT-mediated component (background subtracted), sheet title says normalised to PfCRTDd2 control, mean ± SEM, SEM
How it was run: as §2

PfCRT^Dd2 [4] = molecular target: T2, PfCRT^Dd2; assay: cell-based; conditions: for PfCRT-mediated [3H]CQ transport, trans-stimulation (% PfCRTDd2 control): PfCRTDd2 oocytes, normalised to oocyte type control; for [3H]CQ transport (% PfCRTDd2 control), trans-stimulation, PfCRTDd2: PfCRT-mediated component (background subtracted), mean ± SEM, SEM
How it was run: as §2

[5] = [test solute]i = 5 mM (intracellular)
[6] = [test solute]i = 45 mM (intracellular; 30 mM for some solutes due to solubility)
[7] = [test solute]i = 5 mM (injected)
[8] = [test solute]i = 45 mM (30 mM for some solutes due to solubility)

T2 sequence (Q9N623 whole entry A220S/I356T/K76T/M74I/N326S/N75E/Q271E/R371I): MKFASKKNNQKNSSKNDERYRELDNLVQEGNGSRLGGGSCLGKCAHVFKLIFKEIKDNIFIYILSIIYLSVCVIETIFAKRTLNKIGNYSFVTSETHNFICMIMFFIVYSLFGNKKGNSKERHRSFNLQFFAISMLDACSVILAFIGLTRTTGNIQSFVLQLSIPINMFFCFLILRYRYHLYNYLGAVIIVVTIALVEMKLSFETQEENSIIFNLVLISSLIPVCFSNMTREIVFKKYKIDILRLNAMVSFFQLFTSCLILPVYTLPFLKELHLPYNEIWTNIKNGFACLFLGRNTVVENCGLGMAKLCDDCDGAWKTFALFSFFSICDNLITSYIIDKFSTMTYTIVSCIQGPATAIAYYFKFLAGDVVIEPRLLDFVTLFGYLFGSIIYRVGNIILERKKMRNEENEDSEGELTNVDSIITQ
Chain of PfCRT^3D7 (Q8IBZ9 59-398): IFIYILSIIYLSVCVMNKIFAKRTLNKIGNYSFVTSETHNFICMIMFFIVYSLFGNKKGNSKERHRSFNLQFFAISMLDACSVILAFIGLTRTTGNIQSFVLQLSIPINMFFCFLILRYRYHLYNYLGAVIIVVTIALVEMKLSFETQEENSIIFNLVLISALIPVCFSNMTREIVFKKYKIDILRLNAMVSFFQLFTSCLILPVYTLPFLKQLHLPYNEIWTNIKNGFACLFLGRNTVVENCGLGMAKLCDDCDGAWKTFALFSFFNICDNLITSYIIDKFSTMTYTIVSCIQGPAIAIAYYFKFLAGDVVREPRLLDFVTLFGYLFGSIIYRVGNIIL
T1 sequence (Q9N623 whole entry A220S/I356L/K76T/N326D): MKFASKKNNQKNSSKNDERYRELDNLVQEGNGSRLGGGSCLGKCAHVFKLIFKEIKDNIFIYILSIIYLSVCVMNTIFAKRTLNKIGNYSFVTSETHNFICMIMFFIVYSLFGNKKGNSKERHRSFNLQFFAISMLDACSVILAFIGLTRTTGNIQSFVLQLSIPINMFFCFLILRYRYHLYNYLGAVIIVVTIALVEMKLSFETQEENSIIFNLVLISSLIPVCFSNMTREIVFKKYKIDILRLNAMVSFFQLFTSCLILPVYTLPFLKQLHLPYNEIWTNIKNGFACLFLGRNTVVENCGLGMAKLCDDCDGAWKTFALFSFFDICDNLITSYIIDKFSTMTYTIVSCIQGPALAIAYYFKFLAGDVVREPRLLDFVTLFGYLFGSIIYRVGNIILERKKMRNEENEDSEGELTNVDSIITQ

Substance	PfCRT-mediated [3H]CQ transport, cis-inhibition (% PfCRTEcu1110 control) (PfCRT^Ecu1110 [1]; [test solute] = 0.5 mM)	PfCRT-mediated [3H]CQ transport, cis-inhibition (% PfCRTEcu1110 control) (PfCRT^Ecu1110 [1]; [test solute] = 1 mM)	PfCRT-mediated [3H]CQ transport, cis-inhibition (% PfCRTEcu1110 control) (PfCRT^Ecu1110 [1]; [test solute] = 2 mM)	[3H]CQ transport (% PfCRTEcu1110 control), cis-inhibition, PfCRTEcu1110 (PfCRT^Ecu1110 [1]; [test solute] = 2 mM)	PfCRT-mediated [3H]CQ transport, cis-inhibition (% PfCRTDd2 control) (PfCRT^Dd2 [2]; [test solute] = 0.5 mM)	PfCRT-mediated [3H]CQ transport, cis-inhibition (% PfCRTDd2 control) (PfCRT^Dd2 [2]; [test solute] = 1 mM)	PfCRT-mediated [3H]CQ transport, cis-inhibition (% PfCRTDd2 control) (PfCRT^Dd2 [2]; [test solute] = 2 mM)	PfCRT-mediated [3H]CQ transport, trans-stimulation (% PfCRT3D7 control) (PfCRT^3D7; [5])	PfCRT-mediated [3H]CQ transport, trans-stimulation (% PfCRT3D7 control) (PfCRT^3D7; [6])	PfCRT-mediated [3H]CQ transport, trans-stimulation (% PfCRTEcu1110 control) (PfCRT^Ecu1110 [3]; [5])	PfCRT-mediated [3H]CQ transport, trans-stimulation (% PfCRTEcu1110 control) (PfCRT^Ecu1110 [3]; [6])	[3H]CQ transport (% PfCRTDd2 control), trans-stimulation, PfCRTEcu1110 (PfCRT^Ecu1110 [3]; [7])	[3H]CQ transport (% PfCRTDd2 control), trans-stimulation, PfCRTEcu1110 (PfCRT^Ecu1110 [3]; [8])	PfCRT-mediated [3H]CQ transport, trans-stimulation (% PfCRTDd2 control) (PfCRT^Dd2 [4]; [5])	PfCRT-mediated [3H]CQ transport, trans-stimulation (% PfCRTDd2 control) (PfCRT^Dd2 [4]; [6])	[3H]CQ transport (% PfCRTDd2 control), trans-stimulation, PfCRTDd2 (PfCRT^Dd2 [4]; [7])	[3H]CQ transport (% PfCRTDd2 control), trans-stimulation, PfCRTDd2 (PfCRT^Dd2 [4]; [8])	[3H]CQ transport (% PfCRTEcu1110 control), cis-inhibition, PfCRTEcu1110 (PfCRT^Ecu1110 [1]; [test solute] = 0.5 mM)	[3H]CQ transport (% PfCRTEcu1110 control), cis-inhibition, PfCRTEcu1110 (PfCRT^Ecu1110 [1]; [test solute] = 1 mM)
HVDPENF [HF-7]	41 ± 1.8 % PfCRTEcu1110 control	31 ± 3.1 % PfCRTEcu1110 control	22 ± 0.4 % PfCRTEcu1110 control	7.0 ± 0.01 % PfCRTEcu1110 control	40 ± 2.3 % PfCRTDd2 control	31 ± 2.3 % PfCRTDd2 control	18 ± 0.6 % PfCRTDd2 control	140 ± 5.2 % PfCRT3D7 control	189 ± 6.2 % PfCRT3D7 control	131 ± 3.7 % PfCRTEcu1110 control	138 ± 4.1 % PfCRTEcu1110 control	40 ± 2.1 % PfCRTEcu1110 control	42 ± 1.5 % PfCRTEcu1110 control	100 ± 1.9 % PfCRTDd2 control	112 ± 1.7 % PfCRTDd2 control	100 ± 1.9 % PfCRTDd2 control	112 ± 1.7 % PfCRTDd2 control		
HVDPENFRL [HL-9]	41 ± 2.5 % PfCRTEcu1110 control	35 ± 2.6 % PfCRTEcu1110 control	28 ± 0.1 % PfCRTEcu1110 control		38 ± 1.0 % PfCRTDd2 control	31 ± 0.3 % PfCRTDd2 control	9 ± 0.8 % PfCRTDd2 control	98 ± 3.5 % PfCRT3D7 control	97 ± 3.1 % PfCRT3D7 control	98 ± 3.6 % PfCRTEcu1110 control	96 ± 2.1 % PfCRTEcu1110 control			97 ± 2.0 % PfCRTDd2 control	98 ± 3.3 % PfCRTDd2 control				
KEEAE [KE-5]		61 ± 1.5 % PfCRTEcu1110 control	54 ± 2.1 % PfCRTEcu1110 control	17 ± 0.3 % PfCRTEcu1110 control	68 ± 3.2 % PfCRTDd2 control	60 ± 4.9 % PfCRTDd2 control	50 ± 1.1 % PfCRTDd2 control	98 ± 3.3 % PfCRT3D7 control	96 ± 2.1 % PfCRT3D7 control	98 ± 3.1 % PfCRTEcu1110 control	98 ± 1.3 % PfCRTEcu1110 control	30 ± 1.5 % PfCRTEcu1110 control	30 ± 1.3 % PfCRTEcu1110 control	97 ± 4.2 % PfCRTDd2 control	99 ± 3.2 % PfCRTDd2 control	97 ± 4.2 % PfCRTDd2 control	99 ± 3.2 % PfCRTDd2 control	21 ± 0.4 % PfCRTEcu1110 control	19 ± 0.3 % PfCRTEcu1110 control
KEFTPPVQA [KA-9]	48 ± 2.1 % PfCRTEcu1110 control	41 ± 2.1 % PfCRTEcu1110 control	30 ± 1.1 % PfCRTEcu1110 control		48 ± 2.0 % PfCRTDd2 control	32 ± 2.1 % PfCRTDd2 control	7 ± 0.1 % PfCRTDd2 control	130 ± 2.2 % PfCRT3D7 control	160 ± 3.9 % PfCRT3D7 control	98 ± 2.8 % PfCRTEcu1110 control	98 ± 2.0 % PfCRTEcu1110 control			98 ± 2.2 % PfCRTDd2 control	98 ± 1.7 % PfCRTDd2 control				
LDNLK [LK-5]	40 ± 1.4 % PfCRTEcu1110 control	30 ± 1.9 % PfCRTEcu1110 control	21 ± 1.9 % PfCRTEcu1110 control	7.0 ± 0.03 % PfCRTEcu1110 control	31 ± 1.4 % PfCRTDd2 control	21 ± 1.9 % PfCRTDd2 control	13 ± 0.7 % PfCRTDd2 control	127 ± 4.2 % PfCRT3D7 control	180 ± 7.2 % PfCRT3D7 control	97 ± 4.2 % PfCRTEcu1110 control	136 ± 5.1 % PfCRTEcu1110 control	29 ± 1.4 % PfCRTEcu1110 control	41 ± 2.1 % PfCRTEcu1110 control	100 ± 1.3 % PfCRTDd2 control	94 ± 3.2 % PfCRTDd2 control	100 ± 1.3 % PfCRTDd2 control	94 ± 3.2 % PfCRTDd2 control	13 ± 0.1 % PfCRTEcu1110 control	9.0 ± 0.03 % PfCRTEcu1110 control

Source: PMC7413254 (Nature Communications, 2020)
